Consider seven molecules from paper PMC6337671, “Simultaneous Determination of Five Phenolic Acids and Four Flavonoid Glycosides in Rat Plasma Using HPLC-MS/MS and Its Application to a Pharmacokinetic Study after a Single Intravenous Administration of Kudiezi Injection” (Molecules, 2018).

Data set [1] can be described thus: Pharmacokinetic study in rats after a single intravenous administration of concentrated Kudiezi injection (HPLC-MS/MS of plasma). The format is in vivo, Sprague-Dawley rats. Particulars: single i.v. 3.6 mL/kg of 15 times concentrated KI, mean ± SD; for MRT last: n = 5, read-out: MRT0-t; for MRT inf: n = 5, read-out: MRT0-∞.
Procedure: Eight male Sprague-Dawley rats (200 ± 20 g) were obtained from Laboratory Animal Center of Fujian Medical University (Fuzhou, China). The animal studies were conducted in accordance with the Guide for the Care and Use of Laboratory Animals published by the USA National Institutes of Health (NIH Publication No. 85-23, revised 1996) and were approved by the Animal Ethic Review Committee of Fujian Medical University (Fuzhou, China). The rats were housed in rat cages (48 × 29 × 18 cm^3), in a unidirectional airflow room at a temperature of 22 ± 2 °C, a relative humidity of 40–70% and a 12 h light/dark cycle. They were fed with freely available commercial food and filtered tap water, and fasted with free access to water for 12 h before the experiments. Three of these rats were selected randomly as blank group with the above mentioned feeding conditions and without administration of drug, and after 24 h from the beginning of the experiment, their blood was collected up exhaustively from abdominal aorta to provide blank plasma for methodological validation. […] All rats were acclimated to the facilities and environment for 7 days before the experiments.
After administration, the rat tail was carefully cleaned with alcohol soaked cotton balls around the injection site to remove the residual drug. Blood was collected from the cut-tail before dosing and at the following time points: 2.5, 5, 10, 15, 20, 30, 45 min and 1, 2, 3, 4, 6, 8, 12 and 24 h after dosing. Plasma was isolated from the blood samples by centrifugation and then stored at −80 °C until analysis.
Noncompartmental pharmacokinetic parameters were calculated by DAS 3.0 software (Version DAS 3.2.8, Chinese Pharmacologic Society, Beijing, China). All the results are expressed as mean ± SD. A single-tailed Student’s t test was performed in the work.
Data set [2] in a line: Stability of the nine components in rat plasma QC samples (auto-sampler, freeze-thaw, long-term). Particulars: n = 5; for 6 h in Auto-Sample, RE: extracted rat plasma; for Freeze-Thaw Stability (Three Cycles), RE / Long-Term Stability (−80 °C, 14 Days), RE: rat plasma. Type of data set: physicochemical. The protocol: The stability of the nine components in rat plasma was investigated under a variety of storage and process conditions. Table 4 summarizes the results of post-preparation (The QC samples were kept in the auto-sampler for 6 h), freeze and thaw and long-term (at −80 °C for 14 days) stability experiments.
Stability of the nine components were assessed under the condition of placing extracted plasma samples in auto-sampler for 6 h, as well as placing plasma samples within freeze-thaw three cycles and at −80 °C for 14 days. LQC, MQC and HQC samples with five replicates at each level were kept at the above conditions and analyzed against freshly prepared calibrators as the reference.

Data set [3] has as its system Mas-related G protein coupled receptor X2. Set-up: method as in PMID 30048896. Particulars: cited from earlier work.
The mark [4] stands for this setting: male, Sprague-Dawley, rat, plasma, iv, 3.6 mL/kg, n = 5.
[5] abbreviates: male, Sprague-Dawley, rat, plasma, iv, 3.6 mL/kg, n = 5, read-out: AUC0-t.
Where [6] appears, read: male, Sprague-Dawley, rat, plasma, iv, 3.6 mL/kg.
The mark [7] stands for this setting: male, Sprague-Dawley, rat, plasma, iv, 3.6 mL/kg, n = 5, read-out: Vd.
[8] abbreviates: HQC spiked 2000 ng/mL (4000 ng/mL for II).
The mark [9] stands for this setting: LQC spiked 15 ng/mL (30 ng/mL for II).
[10] abbreviates: MQC spiked 500 ng/mL (1000 ng/mL for II).

Where two headings read alike, the source gives them in different places.

As usually defined, the AUC(0-inf) is total exposure, with the tail of the curve extrapolated. The low end stands for less exposure, the high end for more exposure. As a reminder, the clearance is the volume of plasma or blood freed of the substance per unit of time. The term half-life denotes the time needed for the level to fall by half in the phase considered. A higher half-life goes with slow loss. In general, Vd refers to the apparent volume that relates the amount in the body to the concentration in plasma or blood. Turning to `O=c1cc(-c2ccc(O)c(O)c2)oc2cc(O[C@@H]3O[C@H](CO[C@@H]4O[C@H](CO)[C@@H](O)[C@H](O)[C@H]4O)[C@@H](O)[C@H](O)[C@H]3O)cc(O)c12` [Compound VI, luteolin-7-O-β-D-gentiobioside], in data set [1] (setting [4]), the area under the curve AUC(0-inf) came out at 0.173 ± 0.015 µg·h/mL, the clearance was 7.66 L/h/kg and the half-life is 0.23 ± 0.12 h. For the same molecule, the AUC(0-t) in data set [1] (setting [5]) is 0.164 ± 0.00834 µg·h/mL. Besides, in data set [1] (setting [6]), the MRT last worked out at 0.2 ± 0.08 h and the MRT inf came to 0.28 ± 0.15 h. Further, the Vd in data set [1] (setting [7]) is 2.51 ± 1.13 L/kg. Further, in data set [2] (setting [8]), the “6 h in Auto-Sample, RE” value came to 0.23%; the “Freeze-Thaw Stability (Three Cycles), RE” value came to 9.34%; the “Long-Term Stability (−80 °C, 14 Days), RE” value (shortened to “Long-Term Stability”) is −5.24%. Moreover, in data set [2] (setting [9]), the “6 h in Auto-Sample, RE” value is reported as −14.11%; the “Freeze-Thaw Stability (Three Cycles), RE” value is reported as −13.29%; the “Long-Term Stability” value is given as −0.68%. Besides, in data set [2] (setting [10]), the “6 h in Auto-Sample, RE” value is −14.25%; the “Freeze-Thaw Stability (Three Cycles), RE” value was −3.78%; the “Long-Term Stability” value is reported as 2.31%.

In data set [1] (setting [4]), `O=C(/C=C/c1ccc(O)c(O)c1)O[C@@H]1C[C@](O)(C(=O)O)C[C@@H](O)[C@H]1O` [I, 5-caffeoylquinic acid] showed an AUC(0-inf) of 0.209 ± 0.0757 µg·h/mL, a clearance of 2.99 L/h/kg and a half-life of 2.22 ± 1.15 h. Besides, the AUC(0-t) in data set [1] (setting [5]) came out at 0.17 ± 0.0557 µg·h/mL. For the same molecule, in data set [1] (setting [6]), the MRT last is 2.29 ± 1.65 h and the MRT inf came out at 3.94 ± 2.71 h. Moreover, in data set [1] (setting [7]), the Vd worked out at 8.22 ± 2.51 L/kg. Further, in data set [2] (setting [8]), the “6 h in Auto-Sample, RE” value was −5.26%; the “Freeze-Thaw Stability (Three Cycles), RE” value is −2.66%; the “Long-Term Stability” value is given as −3.42%. Besides, in data set [2] (setting [9]), the “6 h in Auto-Sample, RE” value is recorded as −15.03%; the “Freeze-Thaw Stability (Three Cycles), RE” value is recorded as −16.92%; the “Long-Term Stability” value is −10.71%. Besides, in data set [2] (setting [10]), the “6 h in Auto-Sample, RE” value was −14.93%; the “Freeze-Thaw Stability (Three Cycles), RE” value is −8.67%; the “Long-Term Stability” value is −1.12%.

Regarding `O=c1cc(-c2ccc(O)c(O)c2)oc2cc(O[C@@H]3O[C@H](CO)[C@@H](O)[C@H](O)[C@H]3O)cc(O)c12` [VIII, luteolin-7-O-β-D-glucoside], in data set [1] (setting [4]), the AUC(0-inf) came to 0.031 ± 0.00209 µg·h/mL, the clearance is 8.25 L/h/kg and the half-life is 0.13 ± 0.02 h. Besides, the AUC(0-t) in data set [1] (setting [5]) was found to be 0.0295 ± 0.00238 µg·h/mL. In data set [1] (setting [6]), the MRT last amounted to 0.09 ± 0.02 h and the MRT inf is 0.11 ± 0.02 h. For the same molecule, in data set [1] (setting [7]), the Vd was found to be 1.51 ± 0.35 L/kg. In addition, in data set [2] (setting [8]), the “6 h in Auto-Sample, RE” value was 0.65%; the “Freeze-Thaw Stability (Three Cycles), RE” value was 3.11%; the “Long-Term Stability” value is 11.47%. In addition, in data set [2] (setting [9]), the “6 h in Auto-Sample, RE” value was −12.91%; the “Freeze-Thaw Stability (Three Cycles), RE” value is given as −11.91%; the “Long-Term Stability” value is given as −1.72%. Further, in data set [2] (setting [10]), the “6 h in Auto-Sample, RE” value is recorded as −8.04%; the “Freeze-Thaw Stability (Three Cycles), RE” value came out at 0.67%; the “Long-Term Stability” value came out at 0.81%. Moreover, the “identified as potential anaphylactoid component in KI” value in data set [3] was “potential anaphylactoid components”.

In data set [1] (setting [4]), `O=C(/C=C/c1ccc(O)c(O)c1)O[C@H]1[C@H](O)C[C@](O)(C(=O)O)C[C@H]1O` [IV, 4-caffeoylquinic acid] gave an AUC(0-inf) of 0.209 ± 0.054 µg·h/mL, a clearance of 1.81 L/h/kg and a half-life of 2.92 ± 1.13 h. Also, in data set [1] (setting [5]), the AUC(0-t) came out at 0.16 ± 0.0394 µg·h/mL. Moreover, in data set [1] (setting [6]), the MRT last turned out to be 2.72 ± 1.32 h and the MRT inf is 5.07 ± 2.17 h. For the same molecule, the distribution volume (Vd) in data set [1] (setting [7]) came out at 7.03 ± 1.29 L/kg. Further, in data set [2] (setting [8]), the “6 h in Auto-Sample, RE” value came out at 6.12%; the “Freeze-Thaw Stability (Three Cycles), RE” value was 6.55%; the “Long-Term Stability” value was 2.14%. Also, in data set [2] (setting [9]), the “6 h in Auto-Sample, RE” value is recorded as −14.16%; the “Freeze-Thaw Stability (Three Cycles), RE” value is listed as −14.73%; the “Long-Term Stability” value was −10.44%. In data set [2] (setting [10]), the “6 h in Auto-Sample, RE” value is reported as −15.00%; the “Freeze-Thaw Stability (Three Cycles), RE” value is reported as −0.15%; the “Long-Term Stability” value was −1.40%.

On to `O=C(/C=C/c1ccc(O)c(O)c1)O[C@@H]1C[C@](O)(C(=O)O)C[C@@H](O)[C@H]1O` [III, chlorogenic acid], for which, in data set [1] (rat plasma, n = 5), the “AUC0-∞” value was 0.19984 ± 0.03715 µg·h/mL, the AUC(0-t) came to 0.15543 ± 0.02339 µg·h/mL, the Cl came to 2.53 ± 0.43 L/h/kg and the MRT0-t was 3.30 ± 0.99 h. In data set [1] (rat plasma, n = 5), the “MRT0-∞” value was determined as 5.93 ± 1.39 h, the Vd amounted to 11.96 ± 3.10 L/kg and the t1/2 is 3.36 ± 0.97 h. Moreover, in data set [2] (setting [8]), the “6 h in Auto-Sample, RE” value is −2.78%; the “Freeze-Thaw Stability (Three Cycles), RE” value worked out at 2.98%; the “Long-Term Stability” value amounted to 2.07%. Besides, in data set [2] (setting [9]), the “6 h in Auto-Sample, RE” value was −7.40%; the “Freeze-Thaw Stability (Three Cycles), RE” value is listed as −18.29%; the “Long-Term Stability” value is reported as −1.71%. Further, in data set [2] (setting [10]), the “6 h in Auto-Sample, RE” value is recorded as −14.11%; the “Freeze-Thaw Stability (Three Cycles), RE” value is −5.77%; the “Long-Term Stability” value is −1.20%.

Take `O=C(O)/C=C/c1ccc(O)c(O)c1` [Compound V, caffeic acid]: in data set [1] (setting [4]), the AUC(0-inf) came out at 0.237 ± 0.0436 µg·h/mL, the clearance is 2.08 L/h/kg and the half-life was 6.09 ± 0.9 h. For the same molecule, in data set [1] (setting [5]), the AUC(0-t) stood at 0.146 ± 0.0408 µg·h/mL. In data set [1] (setting [6]), the MRT last was found to be 4.09 ± 1.36 h and the MRT inf turned out to be 9.75 ± 1.7 h. In data set [1] (setting [7]), the Vd came to 17.9 ± 1.44 L/kg. In data set [2] (setting [8]), the “6 h in Auto-Sample, RE” value was −11.88%; the “Freeze-Thaw Stability (Three Cycles), RE” value is given as −7.76%; the “Long-Term Stability” value is reported as 7.83%. Moreover, in data set [2] (setting [9]), the “6 h in Auto-Sample, RE” value is on record as −18.04%; the “Freeze-Thaw Stability (Three Cycles), RE” value is −13.66%; the “Long-Term Stability” value was −17.21%. Also, in data set [2] (setting [10]), the “6 h in Auto-Sample, RE” value is recorded as −14.10%; the “Freeze-Thaw Stability (Three Cycles), RE” value was −2.10%; the “Long-Term Stability” value is listed as −5.99%.

For `O=C(/C=C/c1ccc(O)c(O)c1)O[C@@H](C(=O)O)[C@@H](O)C(=O)O` [II, caftaric acid], in data set [1] (setting [4]), the total exposure AUC(0-inf) is 3.08 ± 0.483 µg·h/mL, the clearance was 3.85 L/h/kg and the half-life is 3.93 ± 0.47 h. Besides, the AUC(0-t) in data set [1] (setting [5]) came out at 2.76 ± 0.4 µg·h/mL. In data set [1] (setting [6]), the MRT last is 3.84 ± 1.84 h and the MRT inf was determined as 6.25 ± 2.83 h. The Vd in data set [1] (setting [7]) came to 22.1 ± 6.21 L/kg. In addition, in data set [2] (setting [8]), the “6 h in Auto-Sample, RE” value was determined as 3.63%; the “Freeze-Thaw Stability (Three Cycles), RE” value is reported as 3.72%; the “Long-Term Stability” value is −10.05%. In data set [2] (setting [9]), the “6 h in Auto-Sample, RE” value is −12.49%; the “Freeze-Thaw Stability (Three Cycles), RE” value is listed as −17.36%; the “Long-Term Stability” value came out at 1.30%. In data set [2] (setting [10]), the “6 h in Auto-Sample, RE” value was −9.25%; the “Freeze-Thaw Stability (Three Cycles), RE” value is 2.66%; the “Long-Term Stability” value was −5.34%.
